Test results reported in PubChem BioAssay AID248 (DTP/NCI, 2004).
“And” between values parts separate entries of the source, which are not always exact repeats. Equal values may be shown once. Toxic doses and inconclusive results are not listed. Cut-off read from the data, not from the text of the source: active = T/C of 150% or more; inactive = T/C below 125%.

Tested on: L1210 leukemia ip in BDF1 mice, survival T/C
Assay: NCI In Vivo Anticancer Drug Screen. Data for tumor model L1210 Leukemia (intraperitoneal) in B6D2F1 (BDF1) mice
Conditions: endpoint: mean survival time, higher = longer survival
In short: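 Ratio derived from survival: compound-dosed mice over vehicle-dosed mice, all bearing a transplantable tumor.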

[1] = dose: 25.0 mg/kg/injection, schedule: Q01DX009 (ip), vehicle: saline
[2] = dose: 25.0 mg/kg/injection, schedule: Q04DX003 (ip), vehicle: saline
[3] = dose: 50.0 mg/kg/injection, schedule: Q01DX009 (ip), vehicle: saline
[4] = dose: 50.0 mg/kg/injection, schedule: Q04DX003 (ip), vehicle: saline
[5] = dose: 100.0 mg/kg/injection, schedule: Q04DX003 (ip), vehicle: Klucel (hydroxypropylcellulose) (HPC)
[6] = dose: 100.0 mg/kg/injection, schedule: Q04DX003 (ip), vehicle: saline
[7] = dose: 200.0 mg/kg/injection, schedule: Q04DX003 (ip), vehicle: Klucel (hydroxypropylcellulose) (HPC)
[8] = dose: 400.0 mg/kg/injection, schedule: Q04DX003 (ip), vehicle: Klucel (hydroxypropylcellulose) (HPC)
[9] = dose: 100.0 mg/kg/injection, schedule: Q04DX002 (ip), vehicle: saline with Tween-80
[10] = dose: 200.0 mg/kg/injection, schedule: Q04DX002 (ip), vehicle: saline with Tween-80
[11] = dose: 400.0 mg/kg/injection, schedule: Q04DX002 (ip), vehicle: saline with Tween-80
[12] = dose: 100.0 mg/kg/injection, schedule: Q04DX003 (ip), vehicle: saline with Tween-80
[13] = dose: 200.0 mg/kg/injection, schedule: Q04DX003 (ip), vehicle: saline with Tween-80
[14] = dose: 100.0 mg/kg/injection, schedule: Q01DX009 (ip), vehicle: saline with Tween-80
[15] = dose: 200.0 mg/kg/injection, schedule: Q01DX009 (ip), vehicle: saline with Tween-80
[16] = dose: 400.0 mg/kg/injection, schedule: Q01DX009 (ip), vehicle: saline with Tween-80
[17] = dose: 100.0 mg/kg/injection, schedule: Q01DX009 (ip), vehicle: Klucel (hydroxypropylcellulose) (HPC)
[18] = dose: 200.0 mg/kg/injection, schedule: Q01DX009 (ip), vehicle: Klucel (hydroxypropylcellulose) (HPC)
[19] = dose: 400.0 mg/kg/injection, schedule: Q01DX009 (ip), vehicle: Klucel (hydroxypropylcellulose) (HPC)

Measured: T/C

O=C(O)/C=C\C(=O)Nc1ccccn1
inactive: dose: 100.0 mg/kg/injection, schedule: Q01DX001 (ip), vehicle: saline 92 % of control | dose: 200.0 mg/kg/injection, schedule: Q01DX001 (ip), vehicle: saline 100 % of control | dose: 400.0 mg/kg/injection, schedule: Q01DX001 (ip), vehicle: saline 103 % of control

CCC(CC)(CO)CO
inactive: [1] 96 % of control | [2] 96 % of control | [3] 96 % of control | [4] 102 % of control | dose: 100.0 mg/kg/injection, schedule: Q01DX009 (ip), vehicle: saline 92 % of control | [5] 103 % of control | [6] 91 % of control | dose: 200.0 mg/kg/injection, schedule: Q01DX009 (ip), vehicle: saline 96 % of control | [7] 94 % of control | dose: 200.0 mg/kg/injection, schedule: Q04DX003 (ip), vehicle: saline 91 % of control | dose: 400.0 mg/kg/injection, schedule: Q01DX009 (ip), vehicle: saline 96 % of control | [8] 97 % of control | dose: 400.0 mg/kg/injection, schedule: Q04DX003 (ip), vehicle: saline 107 % of control

CN(C)C(C)(C)CCCNc1ccnc2cc(Cl)ccc12
inactive: dose: 75.0 mg/kg/injection, schedule: Q01DX001 (ip), vehicle: carboxymethylcellulose (CMC) 100 % of control | dose: 150.0 mg/kg/injection, schedule: Q01DX001 (ip), vehicle: carboxymethylcellulose (CMC) 100 % of control

NC(N)=N/N=C\c1ccc(O)c(O)c1
inactive: dose: 15.0 mg/kg/injection, schedule: Q01DX Z (ip), vehicle: carboxymethylcellulose (CMC) 97 % of control | dose: 30.0 mg/kg/injection, schedule: Q01DX Z (ip), vehicle: carboxymethylcellulose (CMC) 97 % of control | dose: 60.0 mg/kg/injection, schedule: Q01DX Z (ip), vehicle: carboxymethylcellulose (CMC) 113 % of control | dose: 120.0 mg/kg/injection, schedule: Q01DX Z (ip), vehicle: carboxymethylcellulose (CMC) 116 % of control | dose: 120.0 mg/kg/injection, schedule: Q01DX Z (oral), vehicle: carboxymethylcellulose (CMC) 109 % of control | dose: 240.0 mg/kg/injection, schedule: Q01DX Z (oral), vehicle: carboxymethylcellulose (CMC) 107 % of control | dose: 480.0 mg/kg/injection, schedule: Q01DX Z (oral), vehicle: carboxymethylcellulose (CMC) 103 % of control | dose: 960.0 mg/kg/injection, schedule: Q01DX Z (oral), vehicle: carboxymethylcellulose (CMC) 114 % of control

O=C1C(=O)c2ccccc2C(O)=C1c1ccc2ccccc2c1
inactive: dose: 50.0 mg/kg/injection, schedule: Q01DX001 (ip), vehicle: carboxymethylcellulose (CMC) 96 % of control | dose: 100.0 mg/kg/injection, schedule: Q01DX001 (ip), vehicle: carboxymethylcellulose (CMC) 96 % of control | dose: 200.0 mg/kg/injection, schedule: Q01DX001 (ip), vehicle: carboxymethylcellulose (CMC) 91 % of control | dose: 400.0 mg/kg/injection, schedule: Q01DX001 (ip), vehicle: carboxymethylcellulose (CMC) 96 % of control

O=S(=O)(F)c1ccc(Cl)cc1CBr
inactive: [9] 107 % of control | [10] 101 % of control | [11] 92 % of control

CN1C(=O)CC2(CCN(CCCC(=O)c3ccc(F)cc3)CC2)C1=O
inactive: dose: 3.12 mg/kg/injection, schedule: Q01DX009 (ip), vehicle: saline 103 % of control and 108 % of control | dose: 6.25 mg/kg/injection, schedule: Q01DX009 (ip), vehicle: Klucel (hydroxypropylcellulose) (HPC) 100 % of control | dose: 6.25 mg/kg/injection, schedule: Q01DX009 (ip), vehicle: saline 100 % of control and 101 % of control and 108 % of control | dose: 12.5 mg/kg/injection, schedule: Q01DX009 (ip), vehicle: Klucel (hydroxypropylcellulose) (HPC) 95 % of control | dose: 12.5 mg/kg/injection, schedule: Q01DX009 (ip), vehicle: saline 106 % of control and 112 % of control and 115 % of control | dose: 25.0 mg/kg/injection, schedule: Q01DX009 (ip), vehicle: Klucel (hydroxypropylcellulose) (HPC) 101 % of control | [1] 110 % of control | dose: 25.0 mg/kg/injection, schedule: Q04DX003 (ip), vehicle: alcohol 108 % of control | dose: 50.0 mg/kg/injection, schedule: Q01DX009 (ip), vehicle: Klucel (hydroxypropylcellulose) (HPC) 110 % of control | [3] 120 % of control and 124 % of control | dose: 50.0 mg/kg/injection, schedule: Q04DX003 (ip), vehicle: alcohol 106 % of control | dose: 100.0 mg/kg/injection, schedule: Q04DX003 (ip), vehicle: alcohol 106 % of control

Nc1ccc(I)cc1
inactive: [12] 104 % of control | [13] 109 % of control

O=C(Nc1ccc([N+](=O)[O-])cc1Cl)OCCCl
inactive: dose: 100.0 mg/kg/injection, schedule: Q01DX001 (ip), vehicle: saline with Tween-80 94 % of control | [14] 98 % of control | [9] 97 % of control | [12] 96 % of control | dose: 200.0 mg/kg/injection, schedule: Q01DX001 (ip), vehicle: saline with Tween-80 98 % of control | [15] 87 % of control and 89 % of control | [10] 97 % of control | [13] 86 % of control | dose: 400.0 mg/kg/injection, schedule: Q01DX001 (ip), vehicle: saline with Tween-80 87 % of control | [16] 91 % of control | [11] 94 % of control

C=CC1(C)CCC2C(=CCC3C(C)(COC4OC(CO)C(O)C(O)C4O)C(O)CCC23C)C1 (stereo not drawn)
inactive: dose: 75.0 mg/kg/injection, schedule: Q01DX001 (ip), vehicle: saline 102 % of control | dose: 150.0 mg/kg/injection, schedule: Q01DX001 (ip), vehicle: saline 98 % of control

N#CC1c2ccccc2C=CN1C(=O)c1ccccc1 (stereo not drawn)
inactive: dose: 50.0 mg/kg/injection, schedule: Q01DX009 (ip), vehicle: saline with Tween-80 95 % of control | [17] 92 % of control | [5] 94 % of control | [12] 97 % of control | [18] 97 % of control | [15] 93 % of control | [7] 98 % of control | [13] 94 % of control | [19] 92 % of control | [16] 95 % of control | [8] 94 % of control | dose: 400.0 mg/kg/injection, schedule: Q04DX003 (ip), vehicle: saline with Tween-80 96 % of control

O=C(O)c1cc2ccccc2c(N=Nc2ccc(S(=O)(=O)N(CCCl)CCCl)cc2)c1O
inactive: [17] 113 % of control | [18] 103 % of control | [19] 111 % of control

CCCCNCCCC
inactive: [2] 102 % of control | [4] 96 % of control | [6] 94 % of control

Oc1ccccc1/C=N/C(O)C(Cl)(Cl)Cl (stereo not drawn)
inactive: dose: 100.0 mg/kg/injection, schedule: Q04DX002 (ip), vehicle: Klucel (hydroxypropylcellulose) (HPC) 96 % of control | dose: 200.0 mg/kg/injection, schedule: Q04DX002 (ip), vehicle: Klucel (hydroxypropylcellulose) (HPC) 114 % of control | dose: 400.0 mg/kg/injection, schedule: Q04DX002 (ip), vehicle: Klucel (hydroxypropylcellulose) (HPC) 107 % of control

CC12CCC(c3cn(C(=O)c4cccnc4)nc31)C2(C)C (stereo not drawn)
inactive: [5] 92 % of control | [7] 97 % of control | [8] 95 % of control

O=c1[nH]c(=O)c2ncsc2[nH]1
inactive: [12] 103 % of control | [13] 110 % of control

O=NN(CCCl)C(=O)Nc1ccc(SCC(=O)O)cc1
inactive: dose: 5.0 mg/kg/injection, schedule: Q01DX001 (ip), vehicle: carboxymethylcellulose (CMC) 117 % of control
active: dose: 18.0 mg/kg/injection, schedule: Q01DX001 (ip), vehicle: carboxymethylcellulose (CMC) 161 % of control | dose: 26.0 mg/kg/injection, schedule: Q01DX001 (ip), vehicle: carboxymethylcellulose (CMC) 175 % of control

NC(=O)c1nc(-c2ccccc2)c(-c2ccccc2)[nH]c1=O
inactive: [14] 104 % of control | [15] 95 % of control | [16] 96 % of control

COC(=O)c1ccc(SC(=O)N(C)C)cc1
inactive: [5] 91 % of control | [7] 96 % of control | [8] 91 % of control

COc1ccc(/C=C2N=C(/C=C/c3ccccc3)OC\2=O)cc1OC
inactive: dose: 100.0 mg/kg/injection, schedule: Q04DX002 (ip), vehicle: gum acacia 88 % of control | dose: 200.0 mg/kg/injection, schedule: Q04DX002 (ip), vehicle: gum acacia 95 % of control | dose: 400.0 mg/kg/injection, schedule: Q04DX002 (ip), vehicle: gum acacia 88 % of control
